Where two headings read alike, the source gives them in different places.
Legend:
[1] = test system: smooth muscle of cavernous body of rabbits; experiment: Enhancement of nitroprusside relaxation of isolated cavernous body strips; conditions: relaxation by 1 µM nitroprusside compared with solvent
Description: Rabbits were anesthetized by an intravenous injection of 40-50 mg/kg of pentobarbital (Nembutal™ manufactured by Dainippon Pharmaceutical Co., Ltd.), blood was drained out by incision of carotid artery, and penis was taken out and placed in an ice-cooled nutrient solution (Krebs bicarbonate containing 118 mM of NaCl, 4.7 mM of KCl, 1.2 mM of KH2PO4, 1.2 mM of MgSO4.7H2O, 1.5 mM of CaCl2, 25 mM of NaHCO3, 11 mM of glucose and 0.023 mM of EDTA·2Na). After the tissues around the albuginea were incised in a nutrient solution, the albuginea was incised to prepare cavernous body of the penis. The cavernous body was cut and both ends of the strips of about 1 cm length were ligated by nylon yarn. One end was fixed to a supporting rod, transferred into a 20-ml Magnus tube which was filled with the nutrient solution, passed with a mixed gas of 95% oxygen and 5% carbon dioxide and kept at 37 °C while another end of the strip was connected to an isometric transducer (TB-611T; NIHON KOHDEN CORP.) placed on the upper area and a stress load of about 2 g was applied. After stabilization of 60 minutes or longer, strips were contracted with 10 µM of phenylephrine in the presence of 5 µM of guanetidine and 1 µM of atropine and, after stabilization, 1 µM or 100 µM of nitroprusside was added whereby relaxation by nitroprusside was ascertained. […] Rate of relaxation by 1 µM of nitroprusside after addition of the sample was compared with that after addition of the solvent and the increasing rate was calculated. […]

[2] = target: T1, PDE type V (Canis lupus familiaris, UniProt O77746); experiment: PDE inhibiting activity, type V; assay type: biochemical, dog; conditions: PDE purified from canine aorta, 1 µM substrate cGMP or cAMP
T1 construct: By elution with a sodium chloride gradient (0 - 0.4 M), PDE types V and III were separated from the other isozymes; from tissue; host or cells: canine aorta
Description: The canine aorta was minced and homogenized with a Waring Blender and a glass homogenizer in six volumes of a Tris-HCl buffer solution (pH 7.5, 20 mM) containing 2 mM magnesium acetate, 5 mM ethylenediaminetetraacetic acid (EDTA), 100 µg/mL of phenylmethylsulforyl fluoride and 15 mM 2-mercaptoethanol (2-ME), and centrifuged at 1200 x g for 30 min. […] By elution with a sodium chloride gradient (0 - 0.4 M), PDE types V and III were separated from the other isozymes. […] The resulting precipitated fraction was similarly applied to the DEAE-trisacryl column and eluted by a sodium chloride gradient (0 - 0.4 M) so as to separate PDE type I.
Specifically, a purified PDE sample was added to 50 mM Tris-HCl buffer solution (pH 7.5) containing 1 µM of substrate cGMP or cAMP (containing tritium-labelled cGMP or cAMP), 1 mM EGTA and 2 mM magnesium acetate. For PDE activity measurement, enzymatically produced 5' GMP or 5' AMP was further hydrolyzed into guanosine or adenosine with snake venom and separated from the substrate by means of an ion-exchange resin (Dowex 1-X2), followed by measuring with a scintillation counter. […] The final concentration of DMSO was adjusted to be no more than 2% in consideration of the effect on PDE activity.

[3] = Absorption upon intranasal administration to rats; assay type: in vivo, Male wistar rats; conditions: for MRT as compared with oral administration / Tmax as compared with oral administration / bioavailability: intranasal administration; for MAT / MRT / Tmax: intranasal; for bioavailability / MRT / Tmax: male, Wistar, rat, inhaled or intranasal
Excerpt: Male wistar rats (eight weeks age) were anesthetized by intraperitoneal injection of 1 g/kg of urethane. Neck was incised to expose a trachea and polyethylene tube (SP 120; Natsume Seisakusho) was inserted into the trachea. Then a part of esophagus was opened by cutting and a polyethylene tube of the same diameter was inserted to the direction of choana and the end was tightly sealed with absorbent cotton and adhesive. In order to prevent a leakage of drug solution from nasopalatine canal, said canal of upper chin opening to mouth was closed by synthetic adhesive. The drug was dissolved in a 0.1% tartaric acid solution and the drug of 500 µl/kg was administered by a micropipette from outer nasal cavity followed by closing both outer nasal cavities immediately. As a control, the rat to which the drug was intravenously injected was prepared. After the injection; aliquot of blood was collected from time to time from jugular vein using a heparin-treated syringe and centrifuged to give plasma. Certain amount of the resulting plasma was collected, extracted with tert-butyl-methyl-ether three times, and the organic phase was evaporated to dryness and dissolved in the initial solvent for HPLC. A certain amount thereof was injected into an HPLC connected to an ultraviolet absorption detector and the drug concentration in the plasma was measured by reversed phase column. Time for arriving the maximum blood concentration (Tmax), mean residence time (MRT) and mean absorption time (MAT) were calculated from the measured value.

[4] = Absorption by percutaneous administration in rats; assay type: in vivo; conditions: hairless rats, Dose 10 mg/kg; for MRT / Tmax: rat
Description: Abdominal skin of hairless rats (eight weeks age, Nippon SLC) was wiped with 70% ethanol, and 0.25 ml/kg of a drug solution (40 mg/ml DMSO) was applied to an area of 8 cm^2 (2 x 4 cm) and the applied area was coated with a film coating agent (Permiaid S, Nitto Medical) and fixed with an adhesive bandage (Elastopore, Nichiban). After application of the drug solution, aliquot of blood was collected from time to time using a heparin-treated syringe from jugular vein and centrifuged to give plasma. Aliquot plasma was extracted with tert-butyl-methyl-ether three times, and the organic phase was evaporated to dryness and dissolved in the initial solvent for HPLC. A certain amount thereof was injected into a HPLC connected to an ultraviolet absorption detector and the drug concentration in the plasma was measured by means of a reversed phase column. Pharmacokinetic parameters were calculated from the measured data by the same manner as in Experiment 3.

[5] = test system: male wistar rats; experiment: Toxicity test, oral administration for four days; conditions: 100 mg/kg/day orally for four days
[6] = test system: PDE type I; experiment: PDE inhibiting activity, type I; assay type: biochemical, dog; conditions: PDE purified from canine aorta; 1 µM substrate cGMP or cAMP; read-out: Inhibition Activity IC50 (µM) Type I
Description: On the basis of the method of Lugnier et al. (Biochem. Pharmacol., 35, 1743-1751, 1986), PDE was purified from the aorta in a dog. The canine aorta was minced and homogenized with a Waring Blender and a glass homogenizer in six volumes of a Tris-HCl buffer solution (pH 7.5, 20 mM) containing 2 mM magnesium acetate, 5 mM ethylenediaminetetraacetic acid (EDTA), 100 µg/mL of phenylmethylsulforyl fluoride and 15 mM 2-mercaptoethanol (2-ME), and centrifuged at 1200 x g for 30 min. The supernatant was separated and salted out with ammonium sulfate which was added to 45% saturation. The resulting precipitated fraction was resuspended in a Tris-HCl buffer solution (pH 7.5, 20 mM) containing 2 mM magnesium acetate and 1 mM 2-ME, dialyzed overnight and applied to a DEAE-trisacryl column (DEAE […] M:IBF). By elution with a sodium chloride gradient (0 - 0.4 M), PDE types V and III were separated from the other isozymes. The supernatant fraction of 45% saturated ammonium sulfate was further mixed with ammonium sulfate to 65% saturation and salted out. The resulting precipitated fraction was similarly applied to the DEAE-trisacryl column and eluted by a sodium chloride gradient (0 - 0.4 M) so as to separate PDE type I.
The thus obtained PDE types V, III and I were measured for their activity in accordance with the method of Thompson et al. (Adv. Cyclic Nucleotide Res., 10, 69-72, 1979) and the method of Wells et al. (Biochim. Biophys. Acta, 384, 430-443, 1975). Specifically, a purified PDE sample was added to 50 mM Tris-HCl buffer solution (pH 7.5) containing 1 µM of substrate cGMP or cAMP (containing tritium-labelled cGMP or cAMP), 1 mM EGTA and 2 mM magnesium acetate. For PDE activity measurement, enzymatically produced 5' GMP or 5' AMP was further hydrolyzed into guanosine or adenosine with snake venom and separated from the substrate by means of an ion-exchange resin (Dowex 1-X2), followed by measuring with a scintillation counter. The activity of each test compound was determined as a percentage of the PDE activity measured when it was added as a dimethyl sulfoxide solution (DMSO) and its IC50 (50% inhibition concentration) was calculated by the probit method. The final concentration of DMSO was adjusted to be no more than 2% in consideration of the effect on PDE activity.

CS(=O)(=O)O.O=c1c(Cc2cccnc2)cn2c3cc(Br)ccc3c3cc(OCCCO)cc1c32 [Example 52, 9-bromo-2-(3-hydroxypropyloxy)-5-(3-pyridylmethyl)-4H-pyrido[3,2,1-jk]carbazol-4-one methanesulfonate]
Enhancing Rate of Relaxation (%) ([1]; Final Added Amount 100 nM): 90.8%
Enhancing Rate of Relaxation (%) ([1]; Final Added Amount 1000 nM): 190.9%
IC50 ([2]; read-out: Inhibition Activity IC50 (µM) Type V): 0.0057 µM
MRT as compared with oral administration [3]: same
Tmax as compared with oral administration [3]: same or shortened
MAT ([3]; Dose 0.3 mg/kg): 1 to 2 h
bioavailability ([3]; plasma): ~100%
MRT ([3]; plasma, Dose 0.3 mg/kg): 2 to 3 h
Tmax ([3]; plasma, Dose 0.3 mg/kg): 0.2 to 0.5 h
MAT [4]: 7.9 h
MRT ([4]; plasma, topical): 8.5 h
Tmax ([4]; plasma, topical): 1 h
abnormal change in body weight and general symptoms [5]: no abnormal change
dead case ([5]; until the next morning of the completion of the administration): no dead case

CCCc1nn(C)c2c(=O)[nH]c(-c3cc(S(=O)(=O)N4CCN(C)CC4)ccc3OCC)nc12.O=C(O)CC(O)(CC(=O)O)C(=O)O [sildenafil, 5-[2-ethoxy-5-(4-methylpiperazin-1-ylsulfonyl)phenyl]-1-methyl-3-propyl-6,7-dihydro-1H-pyrazolo[4,3-d]pyrimidin-7-one-citrate, reference compound]
Enhancing Rate of Relaxation (%) ([1]; Final Added Amount 1000 nM): 189.1%
IC50 ([2]; Inhibition Activity IC50 (µM) Type V): 0.0018 µM
MRT as compared with oral administration [3]: same
Tmax as compared with oral administration [3]: same or shortened
MAT ([3]; Dose 1.0 mg/kg): 1 to 2 h
bioavailability ([3]; in vivo): ~100%
MRT ([3]; in vivo, Dose 1.0 mg/kg): 2 to 3 h
Tmax ([3]; in vivo, Dose 1.0 mg/kg): 0.2 to 0.5 h
IC50 [6]: 0.46 µM
MAT [4]: 14.3 h
MRT ([4]; in vivo): 14.7 h
Tmax ([4]; in vivo): 1 h

Source: patent EP0992240A1, “THERAPEUTIC AGENT FOR ERECTION FAILURE” (MOCHIDA PHARMACEUTICAL CO., LTD., priority 1997, dated 1998)
